Experimental data from patent US20060069132A1, “Azolecarboxamide herbicides” (priority 2004, published 2006).

Tests used:
large crabgrass = test: Test B pre-/postemergence herbicide test; assay type: in vivo, Digitaria sanguinalis; settings: for Crabgrass, Large plant response rating: postemergence
In short: (§1)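 Flooded paddy rice and barnyardgrass were treated at the 2-leaf stage; upland plantings received compound either on sown seed or on 1- to 4-leaf seedlings. All were kept 13–15 days in a greenhouse and scored visually, 0–100, relative to untreated plants.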

rice [1] = test: Test B flooded paddy test; assay type: in vivo, Oryza sativa; settings: 1000 g ai/ha, scale 0 to 100 (0 no effect, 100 complete control)
In short: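 After treating 2-leaf paddy plants or 2–18 cm postemergence plants (1 to 4 leaves) with formulated chemical, researchers kept them in a greenhouse for 13–15 days. Effects were judged visually versus controls: 0 indicates none, 100 total control.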

wheat = test: Test B postemergence herbicide test; assay type: in vivo, Triticum aestivum; design: key to Wheat plant response rating: 0 = no effect, 100 = complete control; settings: postemergence
In short: (§2)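 Postemergence plants were sprayed with formulated test chemicals at 2 to 18 cm height (1- to 4-leaf stage); paddy species were grown to the 2-leaf stage. After 13 to 15 days in a greenhouse, injury was rated visually against untreated controls on a 0–100 scale (0 = no effect, 100 = complete control).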

Surinam grass = test: Test B pre-/postemergence herbicide test; assay type: in vivo, Urochloa decumbens; settings: for Surinam Grass plant response rating: postemergence
In short: as §1

cocklebur = test: Test B pre-/postemergence herbicide test; assay type: in vivo, Xanthium strumarium; settings: for Cocklebur plant response rating: postemergence
In short: (§3)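 Test chemicals in a non-phytotoxic solvent mixture with surfactant were applied preemergence to seeded species and postemergence to plants 2-18 cm tall (1- to 4-leaf stage); rice and barnyardgrass were also tested in a flooded paddy at the 2-leaf stage. Visual rating versus controls after 13-15 days in greenhouse, scale 0 (no effect) to 100 (complete control).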

morningglory = test: Test B pre-/postemergence herbicide test; assay type: in vivo, Ipomoea coccinea; settings: for Morningglory plant response rating: postemergence
In short: as §3

pigweed = test: Test B pre-/postemergence herbicide test; assay type: in vivo, Amaranthus retroflexus; settings: for Pigweed plant response rating: postemergence
In short: as §1

ducksalad = test: Test B flooded paddy test; assay type: in vivo, Heteranthera limosa; settings: 1000 g ai/ha, scale 0 to 100 (0 no effect, 100 complete control)
In short: (§4)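 Paddy species grown to the 2-leaf stage under flooding; blackgrass sprayed postemergence at 2–18 cm (1- to 4-leaf stage). Plants kept in a greenhouse for 13 to 15 days, then visually rated against controls on 0 (no effect) to 100 (complete control).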

giant foxtail = test: Test B pre-/postemergence herbicide test; assay type: in vivo, Setaria faberi; settings: for Foxtail, Giant plant response rating: postemergence
In short: as §1

wild oat = test: Test B postemergence herbicide test; assay type: in vivo, Avena fatua; settings: postemergence
In short: as §2

blackgrass = test: Test B postemergence herbicide test; assay type: in vivo, Alopecurus myosuroides; settings: postemergence
In short: as §4

corn = test: Test B pre-/postemergence herbicide test; assay type: in vivo, Zea mays; settings: for Corn plant response rating: postemergence
In short: as §1

barnyardgrass [2] = test: Test B pre-/postemergence herbicide test; assay type: in vivo, Echinochloa crus-galli; settings: for Barnyardgrass plant response rating: postemergence
In short: as §3

lambsquarters = test: Test B pre-/postemergence herbicide test; assay type: in vivo, Chenopodium album; settings: for Lambsquarters plant response rating: postemergence
In short: as §1

barnyardgrass [3] = test: Test B flooded paddy test; assay type: in vivo, Echinochloa crus-galli; settings: 1000 g ai/ha, scale 0 to 100 (0 no effect, 100 complete control)
In short: as §4

[4] = test system: small flower umbrella sedge; test: Test B flooded paddy test; assay type: in vivo, Cyperus difformis; settings: 1000 g ai/ha, scale 0 to 100 (0 no effect, 100 complete control)
In short: as §4

velvetleaf = test: Test B pre-/postemergence herbicide test; assay type: in vivo, Abutilon theophrasti; settings: for Velvetleaf plant response rating: postemergence
In short: as §1

rice [5] = test: Test B pre-/postemergence herbicide test; assay type: in vivo, Oryza sativa; settings: 0 = no effect, 100 = complete control, preemergence
In short: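 Evaluation is visual, comparing treated with control plants on a scale where 0 means no effect and 100 means full control. Treatments were preemergence, or postemergence on seedlings 2–18 cm tall, and held 13–15 days in the greenhouse.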

[6] = 125 g ai/ha, 0 = no effect, 100 = complete control, preemergence
[7] = 500 g ai/ha, visual rating, 0 = no effect, 100 = complete control, preemergence
[8] = 125 g ai/ha, visual rating, scale 0 (no effect) to 100 (complete control)
[9] = 500 g ai/ha, scale 0 to 100, 0 is no effect, 100 is complete control

CCNC(=O)c1ccc(F)c(NC(=O)c2c(F)c(C(C)(C)C)nn2CC)c1 [Compound 275]
Crabgrass, Large plant response rating (0 to 100 scale) (large crabgrass; [6]): 0 | Plant response rating, Crabgrass, Large (large crabgrass; [7]): 0 | Crabgrass, Large plant response rating (large crabgrass; [8]): 0 | Crabgrass, Large plant response rating (large crabgrass; [9]): 10 | Rice plant response rating (rice [1]): 20 | Wheat plant response rating (wheat; [8]): 20 | Wheat plant response rating (wheat; [9]): 30 | Surinam Grass plant response rating (0 to 100 scale) (Surinam grass; [6]): 0 | Plant response rating, Surinam Grass (Surinam grass; [7]): 10 | Surinam Grass plant response rating (Surinam grass; [8]): 10 | Surinam Grass plant response rating (Surinam grass; [9]): 30 | Cocklebur plant response rating (0 to 100 scale) (cocklebur; [6]): 0 | Plant response rating, Cocklebur (cocklebur; [7]): 0 | Cocklebur plant response rating (cocklebur; [8]): 0 | Cocklebur plant response rating (cocklebur; [9]): 10 | Morningglory plant response rating (0 to 100 scale) (morningglory; [6]): 0 | Plant response rating, Morningglory (morningglory; [7]): 40 | Morningglory plant response rating (morningglory; [8]): 0 | Morningglory plant response rating (morningglory; [9]): 10 | Pigweed plant response rating (0 to 100 scale) (pigweed; [6]): 0 | Plant response rating, Pigweed (pigweed; [7]): 40 | Pigweed plant response rating (pigweed; [8]): 60 | Pigweed plant response rating (pigweed; [9]): 70 | Ducksalad plant response rating (ducksalad): 60 | Foxtail, Giant plant response rating (0 to 100 scale) (giant foxtail; [6]): 0 | Plant response rating, Foxtail, Giant (giant foxtail; [7]): 20 | Foxtail, Giant plant response rating (giant foxtail; [8]): 0 | Foxtail, Giant plant response rating (giant foxtail; [9]): 0 | Oat, Wild plant response rating (wild oat; [8]): 30 | Oat, Wild plant response rating (wild oat; [9]): 40 | Blackgrass plant response rating (blackgrass; [8]): 40 | Blackgrass plant response rating (blackgrass; [9]): 40 | Corn plant response rating (0 to 100 scale) (corn; [6]): 0 | Plant response rating, Corn (corn; [7]): 20 | Corn plant response rating (corn; [8]): 0 | Corn plant response rating (corn; [9]): 0 | Barnyardgrass plant response rating (0 to 100 scale) (barnyardgrass [2]; [6]): 0 | Plant response rating, Barnyardgrass (barnyardgrass [2]; [7]): 60 | Barnyardgrass plant response rating (barnyardgrass [2]; [8]): 0 | Barnyardgrass plant response rating (barnyardgrass [2]; [9]): 20 | Plant response rating, Lambsquarters (lambsquarters; [7]): 100 | Lambsquarters plant response rating (lambsquarters; [8]): 50 | Lambsquarters plant response rating (lambsquarters; [9]): 70 | Barnyardgrass plant response rating (barnyardgrass [3]): 20 | Sedge, Umbrella plant response rating [4]: 80 | Velvetleaf plant response rating (0 to 100 scale) (velvetleaf; [6]): 0 | Plant response rating, Velvetleaf (velvetleaf; [7]): 0 | Velvetleaf plant response rating (velvetleaf; [8]): 0 | Velvetleaf plant response rating (velvetleaf; [9]): 30 | Rice plant response rating (0 to 100 scale) (rice [5]; 125 g ai/ha): 0 | Plant response rating, Rice (rice [5]; 500 g ai/ha, visual rating): 60
